These results are taken from paper PMC4928094, “The first characterization of multidrug and toxin extrusion (MATE/SLC47) proteins in zebrafish (Danio rerio)” (Scientific Reports, 2016).

For data set [1], the target named is zebrafish Mate8 (Danio rerio, UniProt A0A8M6YZ09). Description: DAPI inhibition assay, Mate8. Particulars: for interaction strength: class by IC50 of DAPI uptake inhibition; for interaction with DAPI uptake (in words): co-incubation with modulator (50 μM–2 mM), Fig. 5. The data set is classed as cell-based. As to the method: (§1) HEK293T cells were transiently transfected as described previously[31] using the PEI (polyethyleneimine) reagent in 48-well plates. Cells were in parallel transfected with pcDNA3.1/His/LacZ plasmid and transfection efficiency was evaluated 24 h after transfection with the LacZ staining protocol.
(§2) HEK293T cells overexpressing respective single zebrafish Mate transporter were used for further experiments. […] DAPI fluorescence was measured at 360 and 460 nm […], respectively. The uptake into vector-transfected HEK293T cells (mock cells) was subtracted to obtain transporter-specific uptake.
(§3) Inhibition assays using DAPI as a fluorescent substrate were performed in the same transport medium. […] Compounds tested for interaction were checked using at least four concentrations but only a representative concentration (with the highest response or the largest concentration in solubility range) is shown.
(§4) For the purpose of IC50 calculations, data were fitted to the sigmoidal four-parameter dose-response model (variable slope),

The target of data set [2] is zebrafish Mate7 (Danio rerio, UniProt U3PTD6). The data set is described as follows: DAPI inhibition assay, Mate7. The data set is classed as cell-based. Particulars: for interaction strength: class by IC50 of DAPI uptake inhibition; for interaction with DAPI uptake (in words): co-incubation with modulator (50 μM–2 mM), Fig. 5. As to the method: as §1, §2, §3, §4
For data set [3], the target named is T1, zebrafish Mate3 (Danio rerio, UniProt A1L1P9).
T1 sequence (A1L1P9 1-590): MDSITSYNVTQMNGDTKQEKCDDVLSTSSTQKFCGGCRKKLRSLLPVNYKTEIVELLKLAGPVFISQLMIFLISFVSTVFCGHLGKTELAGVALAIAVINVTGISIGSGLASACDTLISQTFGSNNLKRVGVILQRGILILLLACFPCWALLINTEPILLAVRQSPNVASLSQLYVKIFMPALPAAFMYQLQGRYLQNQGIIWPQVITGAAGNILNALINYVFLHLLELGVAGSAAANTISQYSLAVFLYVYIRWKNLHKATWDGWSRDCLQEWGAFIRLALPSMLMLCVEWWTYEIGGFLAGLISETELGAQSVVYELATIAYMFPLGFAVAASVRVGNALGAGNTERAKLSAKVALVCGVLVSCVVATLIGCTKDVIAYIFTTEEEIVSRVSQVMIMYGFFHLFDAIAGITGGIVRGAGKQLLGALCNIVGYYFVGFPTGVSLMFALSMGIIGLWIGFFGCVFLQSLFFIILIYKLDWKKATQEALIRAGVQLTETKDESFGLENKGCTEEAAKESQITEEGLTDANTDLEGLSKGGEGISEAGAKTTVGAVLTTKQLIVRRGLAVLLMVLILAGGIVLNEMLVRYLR
Description: DAPI inhibition assay, Mate3. It counts as cell-based. Set-up: expressed in transfected cells; host or cells: HEK293T. As to conditions: for interaction with DAPI uptake (in words): Mate3, co-incubation with modulator (50 μM–2 mM), Fig. 5. As to the method: as §1, §2, §3, §4

For data set [4], the target named is zebrafish Mate6 (Danio rerio, UniProt A1L2E7). The data set is described as follows: DAPI inhibition assay, Mate6. As to conditions: for interaction strength: class by IC50 of DAPI uptake inhibition; for interaction with DAPI uptake (in words): co-incubation with modulator (50 μM–2 mM), Fig. 5. The data set is classed as cell-based. As to the method:
as §1, §2, §3, §4

Data set [5] deals with zebrafish Mate4 (Danio rerio, UniProt U3Q0C3). The data set is described as follows: DAPI inhibition assay, Mate4. The data set is classed as cell-based. Particulars: for interaction with DAPI uptake (in words): co-incubation with modulator (50 μM–2 mM), Fig. 5. As to the method: as §1, §2, §3, §4
Data set [6] has as its system CC[n+]1c(-c2ccccc2)c2cc(N)ccc2c2ccc(N)cc21. The data set is described as follows: cells, lysate or membranes. As to conditions: dye uptake, HEK293T, mean ± SD.
Description: (§5) Calibration curves for all substrates were generated in 0.1% SDS and in the cell matrix dissolved in 0.1% SDS. Resulting linear calibration curves were the same in the SDS and in the dissolved cell matrix. Using the calibration curves, uptake was expressed as pmol of substrate per mg of protein per minute. Total cell protein content was determined according to the Bradford method[33].
(§6) All assays were performed in 3–5 independent experiments run in triplicates. […] All calculations were performed using GraphPad Prism 5.00 for Windows (GraphPad Software, San Diego, California, USA) as described below. The kinetic parameters, Km and Vmax values were calculated using the Michaelis-Menten equation,
(§7) where V is velocity (picomoles of substrate per milligram of proteins per minute), Vmax is maximal velocity, [S] is substrate concentration and Km is the Michaelis Menten constant.
Substrate in data set [7]: COC(=O)c1ccccc1-c1c2ccc(=N)cc-2oc2cc(N)ccc12
Description: cells, lysate or membranes. As to conditions: other: Mate4; dye uptake, HEK293T; mean ± SD; NT = no transport found.
Description: as §5, §6, §7

Substrate in data set [8]: CN(C)c1ccc(/C=C/c2cc[n+](C)cc2)cc1
Description: cells, lysate or membranes. As to conditions: other: Mate4; dye uptake, HEK293T; mean ± SD; NT = no transport found.
Description: as §5, §6, §7

Where [9] appears, read: other: Mate8, NT = no transport found.
Where [10] appears, read: Mate7, inhibition of DAPI (2.5 μM) uptake, n = 3, NE = no effect in the compound solubility range, read-out: IC50.
Setting [11] is: Mate4, inhibition of DAPI (1 μM) uptake, n = 3, NE = no effect in the compound solubility range, read-out: IC50.
Where [12] appears, read: other: Mate4, NT = no transport found.

Structures can show the parent of a compound that is named as a salt. Where two headings read alike, the source gives them in different places.

Chain of zebrafish Mate7 (U3PTD6 entry or part of it): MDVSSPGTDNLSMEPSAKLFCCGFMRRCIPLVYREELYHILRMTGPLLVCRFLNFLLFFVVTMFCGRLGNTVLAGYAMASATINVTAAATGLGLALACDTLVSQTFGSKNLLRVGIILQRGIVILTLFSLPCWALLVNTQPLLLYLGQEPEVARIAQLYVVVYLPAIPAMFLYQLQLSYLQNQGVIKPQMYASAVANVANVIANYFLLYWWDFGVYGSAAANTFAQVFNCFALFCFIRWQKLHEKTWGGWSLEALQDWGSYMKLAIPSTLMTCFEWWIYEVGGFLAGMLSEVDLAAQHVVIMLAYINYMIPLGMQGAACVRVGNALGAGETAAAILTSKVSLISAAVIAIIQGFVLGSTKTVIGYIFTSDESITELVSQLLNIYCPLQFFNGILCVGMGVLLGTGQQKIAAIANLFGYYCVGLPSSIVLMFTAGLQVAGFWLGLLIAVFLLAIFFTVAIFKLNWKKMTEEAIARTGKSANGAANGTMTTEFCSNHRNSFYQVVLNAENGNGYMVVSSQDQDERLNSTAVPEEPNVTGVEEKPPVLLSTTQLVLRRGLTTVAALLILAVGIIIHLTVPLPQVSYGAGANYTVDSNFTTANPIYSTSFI
Chain of zebrafish Mate8 (A0A8M6YZ09 entry or part of it): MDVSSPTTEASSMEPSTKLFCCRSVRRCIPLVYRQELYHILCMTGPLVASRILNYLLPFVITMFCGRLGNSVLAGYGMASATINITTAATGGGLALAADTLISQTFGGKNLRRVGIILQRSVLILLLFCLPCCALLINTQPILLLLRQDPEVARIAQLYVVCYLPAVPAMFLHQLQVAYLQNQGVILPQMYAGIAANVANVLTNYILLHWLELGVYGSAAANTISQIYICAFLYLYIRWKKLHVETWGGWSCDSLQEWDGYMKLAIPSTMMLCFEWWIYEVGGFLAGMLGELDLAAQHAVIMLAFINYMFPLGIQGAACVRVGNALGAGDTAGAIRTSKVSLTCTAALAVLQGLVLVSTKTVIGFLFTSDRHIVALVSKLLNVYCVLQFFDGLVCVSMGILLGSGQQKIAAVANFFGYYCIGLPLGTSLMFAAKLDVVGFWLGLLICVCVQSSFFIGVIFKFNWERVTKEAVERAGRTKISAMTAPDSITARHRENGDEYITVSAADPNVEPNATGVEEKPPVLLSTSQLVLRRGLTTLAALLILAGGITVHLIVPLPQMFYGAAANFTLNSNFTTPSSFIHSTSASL
Chain of zebrafish Mate6 (A1L2E7 entry or part of it): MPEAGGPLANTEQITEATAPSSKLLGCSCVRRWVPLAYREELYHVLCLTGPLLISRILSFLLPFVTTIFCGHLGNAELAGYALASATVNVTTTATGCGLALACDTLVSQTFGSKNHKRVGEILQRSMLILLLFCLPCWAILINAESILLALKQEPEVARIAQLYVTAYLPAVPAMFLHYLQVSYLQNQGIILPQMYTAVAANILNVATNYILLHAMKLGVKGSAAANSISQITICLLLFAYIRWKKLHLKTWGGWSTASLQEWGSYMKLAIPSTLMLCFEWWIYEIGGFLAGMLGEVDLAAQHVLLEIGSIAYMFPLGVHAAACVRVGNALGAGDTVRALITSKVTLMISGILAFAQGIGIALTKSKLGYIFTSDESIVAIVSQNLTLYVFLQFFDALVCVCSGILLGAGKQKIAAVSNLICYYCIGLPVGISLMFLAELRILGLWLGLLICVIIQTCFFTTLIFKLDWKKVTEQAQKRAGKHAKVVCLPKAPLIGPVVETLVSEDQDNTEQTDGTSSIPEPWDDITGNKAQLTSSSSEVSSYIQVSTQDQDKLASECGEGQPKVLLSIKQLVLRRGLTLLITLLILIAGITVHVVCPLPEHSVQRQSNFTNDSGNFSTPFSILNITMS

As a reminder, the IC50 is the point on the concentration scale where inhibition reaches its midpoint. Turning to `C[C@H](CCC(=O)O)[C@H]1CC[C@H]2[C@@H]3CC[C@@H]4C[C@H](O)CC[C@]4(C)[C@H]3C[C@H](O)[C@]12C` [Deoxycholate, deoxycholate], the IC50 worked out at 274 µM in data set [1] and 203 µM in data set [2]. For the same molecule, the interaction strength result in data set [1] (Mate8) and in data set [2] (Mate7) was “weak (IC50 of 100–999 μM was classified as weak interaction)” throughout.
Regarding `C=C[C@H]1C[N@@]2CC[C@H]1C[C@@H]2[C@@H](O)c1ccnc2ccc(OC)cc12` [Quinidine, quinidine, reference compound], the IC50 in data set [3] (read-out: IC50) was 58.4 µM.
Consider `C[C@]12C[C@H](O)[C@H]3[C@@H](CCC4=CC(=O)CC[C@@]43C)[C@@H]1CC[C@@H]2C(=O)CO` [Corticosterone, corticosterone], for which the IC50 in data set [1] is 22.1 µM; in data set [4], 99.3 µM; in data set [2], 99.6 µM; in data set [5], 238 µM. Further, the interaction strength result is “strong (Compounds with IC50 of 1–29 μM were designated as strong interactors)” in data set [1] (Mate8), “moderate (IC50 of 30–99 μM indicated moderate interaction)” in data set [4] (Mate6) and “weak (IC50 of 100–999 μM was classified as weak interaction)” in data set [2] (Mate7).
The term Km denotes the substrate concentration at which the rate is half of its maximum. As to zebrafish Mate8 (Danio rerio), in data set [6] (setting [9]), the Km is 0.85 ± 0.12 µM and the Vmax came to 17.0 ± 0.59 pmol/mg protein/min.
As to `C[n+]1ccc(-c2cc[n+](C)cc2)cc1` [Paraquat, paraquat, reference compound], the IC50 in data set [1] turned out to be 6290 µM; in data set [4], 5730 µM; in data set [5], 462 µM. In addition, the interaction strength entry in data set [1] (Mate8) was “very weak (substances with IC50 above 1000 μM were considered very weak interactors)”. Further, the “interaction with DAPI uptake (in words)” value in data set [2] (Mate7) is on record as “too weak to determine the IC50”.
With `C[C@]12CC[C@H]3[C@@H](CCC4=CC(=O)CC[C@@]43C)[C@@H]1CC[C@@H]2O` [Testosterone, testosterone], the IC50 stood at 50.5 µM in data set [1]; 39 µM in data set [4]; 42 µM in data set [2]; 669 µM in data set [3]; 651 µM in data set [5]. Besides, the interaction strength result in data set [1] (Mate8), in data set [4] (Mate6) and in data set [2] (Mate7) was “moderate (IC50 of 30–99 μM indicated moderate interaction)” in each case. The “interaction with DAPI uptake (in words)” value in data set [1] (Mate8), in data set [4] (Mate6), in data set [2] (Mate7), in data set [3] and in data set [5] (Mate4) was “inhibited” each time.
zebrafish Mate6 (Danio rerio): in data set [6] (other: Mate6), the Km was determined as 2.98 ± 0.18 µM and the Vmax is recorded as 504 ± 9.79 pmol/mg protein/min.
In the case of `CN1CC(=O)NC1=N` [creatinine], the “interaction with DAPI uptake (in words)” value in data set [1] (Mate8), in data set [4] (Mate6), in data set [2] (Mate7), in data set [3] and in data set [5] (Mate4) was “did not interact” throughout.
Turning to `C[C@]12CCC(=O)C=C1CC[C@@H]1[C@@H]2CC[C@]2(C)C(=O)CC[C@@H]12` [Androstenedione, androstenedione], the IC50 was 20.1 µM in data set [1], 25.3 µM in data set [4], 14.9 µM in data set [2] and 114 µM in data set [5]. The interaction strength result in data set [1] (Mate8) and in data set [2] (Mate7) was “strong (Compounds with IC50 of 1–29 μM were designated as strong interactors)” each time.
`CN(C)C(=N)N=C(N)N` [metformin, reference compound]: the “interaction with DAPI uptake (in words)” value in data set [1] (Mate8), in data set [4] (Mate6), in data set [2] (Mate7) and in data set [5] (Mate4) was “did not interact” each time.
`C[C@]12CC[C@H](OS(=O)(=O)O)CC1=CC[C@@H]1[C@@H]2CC[C@]2(C)C(=O)CC[C@@H]12` [DHEAS, dehydroepiandrosterone sulfate]: the interaction strength entry is “strong (Compounds with IC50 of 1–29 μM were designated as strong interactors)” in data set [1] (Mate8), “moderate (IC50 of 30–99 μM indicated moderate interaction)” in data set [4] (Mate6) and “moderate (IC50 of 30–99 μM indicated moderate interaction)” in data set [2] (Mate7). Also, the IC50 is 26.9 µM in data set [1] (Mate8, inhibition of DAPI (1 μM) uptake, n = 3, NE = no effect in the compound solubility range, read-out: IC50); 39.1 µM in data set [4] (Mate6, inhibition of DAPI (1 μM) uptake, n = 3, NE = no effect in the compound solubility range, read-out: IC50); 60.2 µM in data set [2] (setting [10]); 313 µM in data set [5] (setting [11]).
With `CC[N+](CC)(CC)CC` [TEA, tetraethylammonium, reference compound], the entries for the “interaction with DAPI uptake (in words)” value in data set [1] (Mate8) and in data set [3] were “not inhibited” and “did not interact”, respectively. For the same molecule, the figures for the IC50 in data set [2] (setting [10]) and in data set [5] (setting [11]) were 3310 µM and 5240 µM, respectively.
With zebrafish Mate7 (Danio rerio), in data set [6] (other: Mate7), the Km was 0.79 ± 0.19 µM and the Vmax is given as 26.3 ± 1.82 pmol/mg protein/min.
In the case of zebrafish Mate4 (Danio rerio), in data set [6] (setting [12]), the Km was 0.45 ± 0.08 µM and the Vmax came to 37.4 ± 2.02 pmol/mg protein/min.

B1: zebrafish Mate4 (Danio rerio) (protein)
chain: MEMNSIHTEDHINGYQKEEKVEDAQLTSRSICAECLRKLRRLLPVNYKEEVMQLLKLAGPVFISQLMIFLISFVSTVFCGHLGKTELAGVALAIAVINVTGISIGSGLASACDTLISQTFGSNNLKRVGVILQRGILILLLACFPCWALLINTEPILLAVRQSPNVASLSQLYVKIFMPALPATFMYQLQGLYLQNQGIIWPQVITGAAGNILNALINYVFLYLLDLGVPGSAAANAISQYSLAVILYTYIRCMGLHKATWDGWSWDCLQEWGSFIRLALPSMLMLCAEWWTYEIGGFLAGLISEVELGAQSIVYELASVMYMFPLGFAVAAGVRVGNALGAGNTEQAKLSAKVSLVCGLLVSSVIAVVIAGTNNIIGYIFSKDEDIVLRVSQVMVMYGFVHLFDATSAITGGIVRGAGKQQIGALCNMVGYYCVGFPIGVSLMFAFNMGIVGLWIGFFTCVFLQSLFFIILIYRLDWKKATQEALIRAGVQLTEIKYESFGLENKGCTEEAAQENTEEGQTDTNTDLEGLSKGEGGITDAVALVTVGEVLTAKQLAVRRGLAFFFMLLILTGGIVLNEVLIRFVI
With B1, the Km in data set [7] amounted to 0.32 ± 0.03 µM. In data set [8], the Km stood at 4.49 ± 0.63 µM and the Vmax worked out at 23.6 ± 1.23 pmol/mg protein/min.
